Assay results from ChEMBL document CHEMBL1201862, “PubChem BioAssay data set” (2004).
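Step 1: Grow cells in 96-well plates. Step 2: Expose to compound for 48 hours at 5 concentrations. Step 3: Interpolate endpoints linearly; if unreached, use highest concentration. GI50 marks 50% less growth.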 Active and inactive are the calls of the source. Rule as the data show it: active = GI50 up to about 1.1 µM and inactive = higher.

Columns and labels:
Test in all cases: inhibition of tumour cell growth, NCI panel, 48 h
OVCAR-4 = test system: OVCAR-4
K562 = test system: K562
HCT-116 = test system: HCT-116
U-251 = test system: U-251
OVCAR-5 = test system: OVCAR-5
KM12 = test system: KM12
MOLT-4 = test system: MOLT-4
PC-3 = test system: PC-3
HCT-15 = test system: HCT-15
MCF7 = test system: MCF7
OVCAR-8 = test system: OVCAR-8
A498 = test system: A498
HL-60 = test system: HL-60
TK-10 = test system: TK-10
HOP-92 = test system: HOP-92
HT-29 = test system: HT-29
CAKI-1 = test system: CAKI-1
SF-295 = test system: SF-295
SF-539 = test system: SF-539
MDA-MB-435 = test system: MDA-MB-435

| Compound | GI50 (OVCAR-4) | GI50 (K562) | GI50 (HCT-116) | GI50 (U-251) | GI50 (OVCAR-5) | GI50 (KM12) | GI50 (MOLT-4) | GI50 (PC-3) | GI50 (HCT-15) [µM] | GI50 (MCF7) | GI50 (OVCAR-8) | GI50 (A498) | GI50 (HL-60) | GI50 (TK-10) | GI50 (HOP-92) | GI50 (HT-29) | GI50 (CAKI-1) | GI50 (SF-295) | GI50 (SF-539) | GI50 (MDA-MB-435) |
| --- | --- | --- | --- | --- | --- | --- | --- | --- | --- | --- | --- | --- | --- | --- | --- | --- | --- | --- | --- | --- |
| Cc1ccc(S(=O)(=O)NC(=O)C2=C3SCCN3C(=O)N(S(=O)(=O)c3ccc(C)cc3)C2c2ccccc2)cc1 (stereo not drawn) | 58.6 µM (inactive) | 36.7 µM (inactive) | 36.1 µM (inactive) | 39.3 µM (inactive) | 39.4 µM (inactive) | 28.2 µM (inactive) | 44.9 µM (inactive) | 33.9 µM (inactive) | > 100 | 29.9 µM (inactive) | 77.1 µM (inactive) | > 100 µM (inactive) | 43.2 µM (inactive) | > 100 µM (inactive) | 28.1 µM (inactive) | 34.4 µM (inactive) | > 100 µM (inactive) | 31.5 µM (inactive) | 25.6 µM (inactive) | 22.9 µM (inactive) |
| O=C(CSCC(=O)N/N=C/c1cccc(OCc2ccccc2)c1)N/N=C/c1cccc(OCc2ccccc2)c1 | > 76.4 µM (inactive) | 22.3 µM (inactive) | 26.8 µM (inactive) | 39.2 µM (inactive) | 96.8 µM (inactive) | 33.3 µM (inactive) | 15.5 µM (inactive) | 20 µM (inactive) | 44.4 | 33.7 µM (inactive) | 32.2 µM (inactive) | > 44.3 µM (inactive) | 21.5 µM (inactive) | 33.3 µM (inactive) | 36.7 µM (inactive) | 39.5 µM (inactive) | > 100 µM (inactive) | 34.2 µM (inactive) | > 100 µM (inactive) | 37.5 µM (inactive) |
| OC(COc1ccccc1)CN1CCCCC1 (stereo not drawn) | > 100 µM (inactive) | > 100 µM (inactive) | > 100 µM (inactive) | > 100 µM (inactive) | > 100 µM (inactive) | > 100 µM (inactive) | > 100 µM (inactive) | > 100 µM (inactive) | > 100 | > 100 µM (inactive) | > 100 µM (inactive) | > 100 µM (inactive) | > 100 µM (inactive) | > 100 µM (inactive) | > 100 µM (inactive) | > 100 µM (inactive) | > 100 µM (inactive) | > 100 µM (inactive) | > 100 µM (inactive) | > 100 µM (inactive) |
| C=C1C(=O)OC2CC(C)C(/C=C/C(C)=O)=CCC12 (stereo not drawn) | > 100 µM (inactive) | 58.7 µM (inactive) | 43.3 µM (inactive) | > 100 µM (inactive) | > 100 µM (inactive) | > 100 µM (inactive) | 83 µM (inactive) | > 100 µM (inactive) | > 100 | > 100 µM (inactive) | > 100 µM (inactive) | > 100 µM (inactive) | 33.1 µM (inactive) | > 100 µM (inactive) | > 100 µM (inactive) | > 100 µM (inactive) | > 100 µM (inactive) | > 100 µM (inactive) | > 100 µM (inactive) | > 100 µM (inactive) |
| N#Cc1ccc2oc3ccc(C#N)cc3c(=O)c2c1 | 18 µM (inactive) | 31.3 µM (inactive) | 29 µM (inactive) | 17.1 µM (inactive) | 19.7 µM (inactive) | 46.5 µM (inactive) | 23.6 µM (inactive) | 24.7 µM (inactive) | > 100 | 24.5 µM (inactive) | > 100 µM (inactive) | 14.8 µM (inactive) | 17.9 µM (inactive) | 24.3 µM (inactive) | 41 µM (inactive) | 20.2 µM (inactive) | > 100 µM (inactive) | 22.9 µM (inactive) | 21.3 µM (inactive) | 34.4 µM (inactive) |
| Cc1ccc2nc(/C=N/c3ccc(Cl)cc3)cc(C)c2c1 | 20.3 µM (inactive) | 0.147 µM (active) | 1.08 µM (active) | 8.47 µM (inactive) | 3.67 µM (inactive) | 0.269 µM (active) | 1.12 µM (inactive) | 1.9 µM (inactive) | 0.027 | 4.7 µM (inactive) | 10.3 µM (inactive) | > 80.4 µM (inactive) | 1.14 µM (inactive) | 2.9 µM (inactive) | 18.6 µM (inactive) | 2.64 µM (inactive) | 1.38 µM (inactive) | 0.798 µM (active) | 2.12 µM (inactive) | 1.04 µM (active) |
| CC(C)(/N=N/C(C)(C)C(=N)N)C(=N)N | > 100 µM (inactive) | > 100 µM (inactive) | > 100 µM (inactive) | > 100 µM (inactive) | > 100 µM (inactive) | > 100 µM (inactive) | > 100 µM (inactive) | > 100 µM (inactive) | > 100 | > 100 µM (inactive) | > 100 µM (inactive) | > 100 µM (inactive) | > 100 µM (inactive) | > 100 µM (inactive) | > 100 µM (inactive) | > 100 µM (inactive) | > 100 µM (inactive) | > 100 µM (inactive) | > 100 µM (inactive) | > 100 µM (inactive) |
| Cc1nc(N)nc(S)c1CCCNc1ccccc1 | > 100 µM (inactive) | 2.36 µM (inactive) | 79.6 µM (inactive) | 68.9 µM (inactive) | > 100 µM (inactive) | 76.7 µM (inactive) | 3.21 µM (inactive) | 61.2 µM (inactive) | > 100 | 38 µM (inactive) | 20.5 µM (inactive) | 26.1 µM (inactive) | 50 µM (inactive) | 63.8 µM (inactive) | > 100 µM (inactive) | 68.7 µM (inactive) | > 100 µM (inactive) | 56.4 µM (inactive) | 95.7 µM (inactive) | 74 µM (inactive) |
| O=C1c2ccccc2N1C(=O)c1ccccc1[N+](=O)[O-] | 30 µM (inactive) | > 100 µM (inactive) | 36.1 µM (inactive) | 90.6 µM (inactive) | > 100 µM (inactive) | 50 µM (inactive) | > 100 µM (inactive) | > 100 µM (inactive) | 44.2 | 97.1 µM (inactive) | 25.1 µM (inactive) | > 100 µM (inactive) | > 10 µM (inactive) | > 100 µM (inactive) | > 100 µM (inactive) | 88.1 µM (inactive) | 92 µM (inactive) |  | 32.2 µM (inactive) | > 100 µM (inactive) |
| COc1cc(CSc2ccc(O)cc2)cc(OC)c1OC |  | 38 µM (inactive) | 53 µM (inactive) | 29.2 µM (inactive) | 52.1 µM (inactive) | 30.2 µM (inactive) | 25.5 µM (inactive) | 27.4 µM (inactive) | 25.5 | 4.31 µM (inactive) | 33.8 µM (inactive) | 93.3 µM (inactive) | 20.4 µM (inactive) | 75.2 µM (inactive) | 19.3 µM (inactive) | 50.4 µM (inactive) | 34.6 µM (inactive) | 24.9 µM (inactive) | 53.3 µM (inactive) | 27.6 µM (inactive) |
| COC(=O)C1=CCC[C@H]2[C@@]1(COC(C)=O)CC[C@@H](C)[C@]2(C)CC(=O)c1ccoc1 | 14.5 µM (inactive) |  | 9.91 µM (inactive) | 21.2 µM (inactive) | 49 µM (inactive) | 14.4 µM (inactive) | 10.5 µM (inactive) | 14.7 µM (inactive) | 13.9 | 16.1 µM (inactive) | 17.9 µM (inactive) | 16.7 µM (inactive) | 10.8 µM (inactive) | 18.2 µM (inactive) | 10.9 µM (inactive) | 8.65 µM (inactive) | 18.6 µM (inactive) | 19.3 µM (inactive) | 10.9 µM (inactive) | 16.7 µM (inactive) |
| C=C1CC[C@H]2C(C)=CC[C@H]3C(=C)C(=O)O[C@@H]3[C@@H]12 [EREMANTHIN] | > 100 µM (inactive) | > 100 µM (inactive) | > 100 µM (inactive) | > 100 µM (inactive) | > 100 µM (inactive) |  | > 100 µM (inactive) | > 100 µM (inactive) | > 100 | > 100 µM (inactive) | > 100 µM (inactive) | > 100 µM (inactive) | > 100 µM (inactive) | > 100 µM (inactive) | > 100 µM (inactive) | > 100 µM (inactive) | > 100 µM (inactive) | > 100 µM (inactive) | > 100 µM (inactive) | > 100 µM (inactive) |
| CCOC(=O)C1=C(Nc2cccc(OC)c2)OCC1=O | > 100 µM (inactive) | > 100 µM (inactive) | > 100 µM (inactive) | > 100 µM (inactive) |  | > 100 µM (inactive) | > 100 µM (inactive) | > 100 µM (inactive) | > 100 | > 100 µM (inactive) | > 100 µM (inactive) | 27.7 µM (inactive) | > 100 µM (inactive) | > 100 µM (inactive) | > 100 µM (inactive) | > 100 µM (inactive) | > 100 µM (inactive) | > 100 µM (inactive) | > 100 µM (inactive) | > 100 µM (inactive) |
| COc1ccc2[nH]c(Cl)c(/C=C3/C(=O)N(c4ccccc4)c4ccccc43)c2c1 |  | 3.18 µM (inactive) | 5.07 µM (inactive) | 3.98 µM (inactive) | 13.6 µM (inactive) | 3.25 µM (inactive) | 3.82 µM (inactive) | 3.7 µM (inactive) | 2.58 | 0.506 µM (active) | 6.44 µM (inactive) | 8.17 µM (inactive) | 2.33 µM (inactive) | 10.8 µM (inactive) | 13.7 µM (inactive) | 3.98 µM (inactive) | 10.6 µM (inactive) | 2.48 µM (inactive) | 3.03 µM (inactive) | 1.46 µM (inactive) |
| COc1ccc(-c2nnc(-c3ccncc3)o2)cc1 | > 100 µM (inactive) | > 100 µM (inactive) | > 100 µM (inactive) | > 100 µM (inactive) | > 100 µM (inactive) |  | > 100 µM (inactive) | > 100 µM (inactive) | > 100 | > 100 µM (inactive) | > 100 µM (inactive) | > 100 µM (inactive) | > 100 µM (inactive) | > 100 µM (inactive) | > 100 µM (inactive) | > 100 µM (inactive) | > 100 µM (inactive) | > 100 µM (inactive) | > 100 µM (inactive) | > 100 µM (inactive) |
